The text below walks through data of paper PMC9686977, “Understanding the Role of Self-Assembly and Interaction with Biological Membranes of Short Cationic Lipopeptides in the Effective Design of New Antibiotics” (Antibiotics, 2022).

Data set [1] has as its system Candida albicans ATCC 10231. It is filed as cell-based. Conditions: ATCC 10231, 48 h. On the procedure: (§1) The minimum inhibitory concentration (MIC) was determined according to the procedure recommended by the Clinical Laboratory Standards Institute guidelines. Reference strains of bacteria: Staphylococcus aureus ATCC 25923, Staphylococcus epidermidis ATCC 14990, Escherichia coli ATCC 25922, Pseudomonas aeruginosa ATCC 9027, and fungus Candida albicans ATCC 10231 were obtained from Polish Collection of Microorganisms (PCM, Polish Academy of Sciences, Wroclaw, Poland). […] The plates with the compounds were incubated for 18 h at 37 °C for bacteria and 48 h at 25 °C for fungi. The minimum inhibitory concentration was assumed as the lowest concentration of a lipopeptide at which the observable growth was inhibited.

Data set [2] relates to Escherichia coli ATCC 25922. Format: cell-based. As to conditions: ATCC 25922, 18 h. On the procedure: as §1
Data set [3] deals with Pseudomonas aeruginosa ATCC 9027. Format: cell-based. Conditions: ATCC 9027, 18 h. On the procedure:
as §1

For data set [4], the system named is Staphylococcus aureus ATCC 25923. It is filed as cell-based. As to conditions: ATCC 25923, 18 h. On the procedure: as §1
The subject of data set [5] is Staphylococcus epidermidis ATCC 14990. Format: cell-based. As to conditions: ATCC 14990, 18 h. The method, then: as §1
For data set [6], the system named is human keratinocytes HaCaT. Format: cell-based. As to conditions: 48 h. The method, then: The cytotoxicity of the compounds was evaluated on the basis of a tetrazolium salt reduction test (MTT) performed along the lines of human keratinocytes HaCaT. The keratinocytes were planted in 96-well plates in a medium supplemented with serum. After 24 h, the medium was changed to a serum-free DMEM one containing graded concentrations of peptides. The cells were incubated with peptides for 48 h. Thereafter, MTT was added in order to reach a final concentration of 0.5 mg/mL, and the plates were incubated at 37 °C for 4 h. Then, the MTT reading was analysed using a plate reader. The absorbance at 630 nm (background absorbance) was subtracted from that at 570 nm for each well.

The conditions of data set [7]: different lipopeptide concentrations.

In brackets after ≈: the same amount, converted by molar mass. Residues, ends and D or L forms follow the SMILES beside them. *: point of attachment. Palmitoyl = CCCCCCCCCCCCCCCC(=O)*; Myristoyl = CCCCCCCCCCCCCC(=O)*; Lauroyl = CCCCCCCCCCCC(=O)*

`CCCCCCCCCCCCCC(=O)N[C@@H](CCCCN)C(=O)N[C@@H](CCCCN)C(=O)N[C@@H](CCCCN)C(=O)N[C@@H](CCCCN)C(N)=O` [Peptide C14-KKKK-NH2] (Myristoyl-KKKK-NH2): in data set [1], the “MIC C. albicans” value amounted to 128 µg/mL (≈ 173 µM). The “MIC E. coli” value in data set [2] was found to be 128 µg/mL (≈ 173 µM). Also, the “MIC P. aeruginosa” value in data set [3] stood at 64 µg/mL (≈ 86.5 µM). For the same molecule, in data set [4], the “MIC S. aureus” value stood at 32 µg/mL (≈ 43.2 µM). Besides, the “MIC S. epidermidis” value in data set [5] was determined as 2 µg/mL (≈ 2.7 µM). In data set [6], the “IC50 on human keratinocytes (HaCaT)” value was 15.63 ± 0.74 µg/mL (≈ 21.1 µM).

As for `CCCCCCCCCCCC(=O)N[C@@H](CCCCN)C(=O)N[C@@H](CCCCN)C(=O)N[C@@H](CCCCN)C(=O)N[C@@H](CCCCN)C(N)=O` [Peptide C12-KKKK-NH2] (Lauroyl-KKKK-NH2), the “MIC C. albicans” value in data set [1] was above 512 µg/mL. Moreover, the “MIC E. coli” value in data set [2] turned out to be 512 µg/mL (≈ 719 µM). In data set [3], the “MIC P. aeruginosa” value came out at 256 µg/mL (≈ 360 µM). In data set [4], the “MIC S. aureus” value stood at 64 µg/mL (≈ 89.9 µM). In addition, the “MIC S. epidermidis” value in data set [5] was determined as 16 µg/mL (≈ 22.5 µM).

`CCCCCCCCCCCCCC(=O)N[C@@H](CCCCN)C(=O)N[C@@H](CCCCN)C(=O)N[C@@H](CCCCN)C(=O)N[C@@H](CCCNC(=N)N)C(N)=O` [Peptide C14-KKKR-NH2] (Myristoyl-KKKR-NH2): the “MIC C. albicans” value in data set [1] is 128 µg/mL (≈ 167 µM). Besides, in data set [2], the “MIC E. coli” value stood at 128 µg/mL (≈ 167 µM). Also, the “MIC P. aeruginosa” value in data set [3] was found to be 128 µg/mL (≈ 167 µM). Moreover, the “MIC S. aureus” value in data set [4] amounted to 32 µg/mL (≈ 41.7 µM). The “MIC S. epidermidis” value in data set [5] was at most 1 µg/mL. For the same molecule, the “IC50 on human keratinocytes (HaCaT)” value in data set [6] is 32.5 ± 10.0 µg/mL (≈ 42.3 µM).

For the molecule `CCCCCCCCCCCCCCCCCC(=O)N[C@@H](CCCCN)C(=O)N[C@@H](CCCCN)C(N)=O` [Peptide C18-KK-NH2], the “MIC C. albicans” value in data set [1] was determined as 4 µg/mL (≈ 7.41 µM). The “MIC E. coli” value in data set [2] amounted to 128 µg/mL (≈ 237 µM). In data set [3], the “MIC P. aeruginosa” value stood at 64 µg/mL (≈ 119 µM). The “MIC S. aureus” value in data set [4] was found to be 64 µg/mL (≈ 119 µM). In addition, the “MIC S. epidermidis” value in data set [5] amounted to 4 µg/mL (≈ 7.41 µM). Besides, the “IC50 on human keratinocytes (HaCaT)” value in data set [6] amounted to 0.69 ± 0.001 µg/mL (≈ 1.28 µM).

Consider `CCCCCCCCCCCCCCCC(=O)N[C@@H](CCCCN)C(=O)N[C@@H](CCCCN)C(N)=O` [Peptide C16-KK-NH2], for which the “MIC C. albicans” value in data set [1] was found to be 4 µg/mL (≈ 7.82 µM). For the same molecule, the “MIC E. coli” value in data set [2] worked out at 8 µg/mL (≈ 15.6 µM). Besides, in data set [3], the “MIC P. aeruginosa” value came to 128 µg/mL (≈ 250 µM). For the same molecule, the “MIC S. aureus” value in data set [4] amounted to 8 µg/mL (≈ 15.6 µM). The “MIC S. epidermidis” value in data set [5] worked out at 4 µg/mL (≈ 7.82 µM). Also, the “IC50 on human keratinocytes (HaCaT)” value in data set [6] came out at 2.5 ± 0.8 µg/mL (≈ 4.88 µM).

As for `CCCCCCCCCCCCCCCC(=O)N[C@@H](CCCCN)C(=O)N[C@@H](CCCCN)C(=O)N[C@@H](CCCCN)C(=O)N[C@@H](CCCCN)C(N)=O` [Peptide C16-KKKK-NH2] (Palmitoyl-KKKK-NH2), the “MIC C. albicans” value in data set [1] turned out to be 16 µg/mL (≈ 20.8 µM). In addition, the “MIC E. coli” value in data set [2] was found to be 16 µg/mL (≈ 20.8 µM). The “MIC P. aeruginosa” value in data set [3] is 16 µg/mL (≈ 20.8 µM). For the same molecule, the “MIC S. aureus” value in data set [4] came to 8 µg/mL (≈ 10.4 µM). For the same molecule, the “MIC S. epidermidis” value in data set [5] came out at 8 µg/mL (≈ 10.4 µM). Further, the “IC50 on human keratinocytes (HaCaT)” value in data set [6] stood at 23.52 ± 1.30 µg/mL (≈ 30.6 µM).

For the molecule `CCCCCCCCCCCC(=O)N[C@@H](CCCCN)C(=O)N[C@@H](CCCNC(=N)N)C(=O)N[C@@H](CCCCN)C(=O)N[C@@H](CCCCN)C(N)=O` [Peptide C12-KRKK-NH2] (Lauroyl-KRKK-NH2), the “MIC C. albicans” value in data set [1] is 512 µg/mL (≈ 692 µM). The “MIC E. coli” value in data set [2] came out at 512 µg/mL (≈ 692 µM). Besides, the “MIC P. aeruginosa” value in data set [3] amounted to 512 µg/mL (≈ 692 µM). Besides, in data set [4], the “MIC S. aureus” value is 64 µg/mL (≈ 86.5 µM). Further, the “MIC S. epidermidis” value in data set [5] was at most 1 µg/mL.

As to `CCCCCCCCCCCCCC(=O)N[C@@H](CCCCN)C(=O)N[C@@H](CCCNC(=N)N)C(=O)N[C@@H](CCCCN)C(=O)N[C@@H](CCCCN)C(N)=O` [Peptide C14-KRKK-NH2] (Myristoyl-KRKK-NH2), in data set [1], the “MIC C. albicans” value turned out to be 128 µg/mL (≈ 167 µM). The “MIC E. coli” value in data set [2] worked out at 64 µg/mL (≈ 83.3 µM). In data set [3], the “MIC P. aeruginosa” value was 64 µg/mL (≈ 83.3 µM). The “MIC S. aureus” value in data set [4] stood at 16 µg/mL (≈ 20.8 µM). The “MIC S. epidermidis” value in data set [5] is at most 1 µg/mL. Also, the “IC50 on human keratinocytes (HaCaT)” value in data set [6] was found to be 20.38 ± 4.12 µg/mL (≈ 26.5 µM).

Take `CCCCCCCCCCCCCCCC(=O)N[C@@H](CCCCN)C(=O)NCCC(=O)N[C@@H](CCCCN)C(N)=O` [Peptide C16-KβAK-NH2]: in data set [1], the “MIC C. albicans” value came out at 4 µg/mL (≈ 6.86 µM). In data set [2], the “MIC E. coli” value came to 64 µg/mL (≈ 110 µM). In addition, the “MIC P. aeruginosa” value in data set [3] was determined as 64 µg/mL (≈ 110 µM). In addition, the “MIC S. aureus” value in data set [4] was found to be 128 µg/mL (≈ 220 µM). Also, the “MIC S. epidermidis” value in data set [5] is 2 µg/mL (≈ 3.43 µM). Besides, the “IC50 on human keratinocytes (HaCaT)” value in data set [6] came to 25.11 ± 6.17 µg/mL (≈ 43.1 µM).

For `CCCCCCCCCCCCCCCC(=O)N[C@@H](CCCNC(=N)N)C(=O)N[C@@H](CCCNC(=N)N)C(=O)N[C@@H](CCCNC(=N)N)C(=O)N[C@@H](CCCNC(=N)N)C(N)=O` [Peptide C16-RRRR-NH2] (Palmitoyl-RRRR-NH2), in data set [7], the “aggregate size from self-diffusion coefficients (PFG NMR), compared with C16-KKKK-NH2” value is reported as “distinctly larger aggregates”.

Consider `CCCCCCCCCCCCCCCC(=O)N[C@@H](CCCCN)C(=O)NCC(=O)N[C@@H](CCCCN)C(N)=O` [Peptide C16-KGK-NH2] (Palmitoyl-Lys-Gly-Lys-NH2), for which the “MIC C. albicans” value in data set [1] was 8 µg/mL (≈ 14.1 µM). Besides, the “MIC E. coli” value in data set [2] stood at 8 µg/mL (≈ 14.1 µM). The “MIC P. aeruginosa” value in data set [3] was found to be 64 µg/mL (≈ 113 µM). In data set [4], the “MIC S. aureus” value was 16 µg/mL (≈ 28.1 µM). Besides, the “MIC S. epidermidis” value in data set [5] worked out at 4 µg/mL (≈ 7.03 µM). Besides, the “IC50 on human keratinocytes (HaCaT)” value in data set [6] stood at 7.41 ± 3.05 µg/mL (≈ 13 µM).
